Source: paper PMC8976068, “Structural basis to repurpose boron-based proteasome inhibitors Bortezomib and Ixazomib as β-lactamase inhibitors” (Scientific Reports, 2022)
Where two headings read alike, the source gives them in different places.

How the values were obtained:
[1] = molecular target: T1, CTX-M-14 β-lactamase (Klebsiella pneumoniae, UniProt A0A2S1JJX2); assay: crystal structure ([…] Å, soaking); also purified enzyme inhibition assay, cefotaxime hydrolysis; assay type: biochemical
[2] = molecular target: T1, CTX-M-14 β-lactamase; assay: as above; assay type: biochemical; remark: listed apart in the source

T1 sequence (A0A2S1JJX2 entry or part of it): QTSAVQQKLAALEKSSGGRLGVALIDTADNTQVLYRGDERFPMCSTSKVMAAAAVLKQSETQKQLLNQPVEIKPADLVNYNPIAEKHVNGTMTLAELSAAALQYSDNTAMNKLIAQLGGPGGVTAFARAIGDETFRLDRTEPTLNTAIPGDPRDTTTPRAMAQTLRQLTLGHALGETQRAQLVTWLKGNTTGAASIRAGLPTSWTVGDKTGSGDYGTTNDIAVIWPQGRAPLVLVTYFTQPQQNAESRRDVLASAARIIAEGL

Row | SMILES | IC50 [1] [µM] | IC50 [2] [µM]
1 | CC(C)C[C@H](NC(=O)CNC(=O)c1cc(Cl)ccc1Cl)B(O)O [Ixazomib] | 13 ± 1.2 | –
2 | CC(C)C[C@H](NC(=O)[C@H](Cc1ccccc1)NC(=O)c1cnccn1)B(O)O [Bortezomib] | – | 67 ± 1.4
